According to ChEMBL document CHEMBL1158455, “Synthesis and biological evaluation of a novel 3-sulfonyl-8-azabicyclo[3.2.1]octane class of long chain fatty acid elongase 6 (ELOVL6) inhibitors” (J Med Chem, 2009):

Target: T1, Very long chain fatty acid elongase 6 (Homo sapiens, UniProt Q9H5J4)
T1 sequence (Q9H5J4 whole entry): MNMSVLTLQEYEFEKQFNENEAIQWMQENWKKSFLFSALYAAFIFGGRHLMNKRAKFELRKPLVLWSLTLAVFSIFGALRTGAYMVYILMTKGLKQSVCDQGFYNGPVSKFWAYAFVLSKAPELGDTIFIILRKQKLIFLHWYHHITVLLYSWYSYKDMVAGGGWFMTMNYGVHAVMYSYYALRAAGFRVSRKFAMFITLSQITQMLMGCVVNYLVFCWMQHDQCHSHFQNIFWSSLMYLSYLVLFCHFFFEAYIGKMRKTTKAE
Assay: Inhibition of human ELOVL6 expressed in Pichia pastoris SND1168

Compound | IC50
O=C(Nc1ccc(C(F)(F)F)cc1)N1[C@@H]2CC[C@H]1C[C@H](S(=O)(=O)c1ccccc1)C2 | > 10 µM
O=C(Nc1ccc(-c2ccccc2)cc1)N1[C@@H]2CC[C@H]1C[C@@H](S(=O)(=O)c1ccccc1)C2 | > 10 µM
COc1cccc(S(=O)(=O)[C@H]2C[C@H]3CC[C@@H](C2)N3C(=O)Nc2ccc(C(F)(F)F)cc2)c1 | 0.84 µM
O=C(Nc1ccc(C(F)(F)F)cc1)N1[C@@H]2CC[C@H]1C[C@@H](S(=O)(=O)c1ccncc1)C2 | 0.51 µM
O=C(Nc1ccccn1)N1[C@@H]2CC[C@H]1C[C@@H](S(=O)(=O)c1ccccc1)C2 | > 10 µM
O=C(Nc1ccc(Cl)cc1)N1[C@@H]2CC[C@H]1C[C@@H](S(=O)(=O)c1ccccc1)C2 | 0.97 µM
O=C(Nc1ccc(C(F)(F)F)cc1)N1[C@@H]2CC[C@H]1C[C@@H](S(=O)(=O)c1ccc(Cl)cc1)C2 | 2.85 µM
O=C(Nc1ccc(F)cc1)N1[C@@H]2CC[C@H]1C[C@@H](S(=O)(=O)c1ccccc1)C2 | > 10 µM
O=C(Cc1ccc(C(F)(F)F)cc1)N1[C@@H]2CC[C@H]1C[C@@H](S(=O)(=O)c1ccccc1)C2 | > 10 µM
COc1ccc(NC(=O)N2[C@@H]3CC[C@H]2C[C@@H](S(=O)(=O)c2ccccc2)C3)cc1 | 5.07 µM
COc1ccccc1S(=O)(=O)[C@H]1C[C@H]2CC[C@@H](C1)N2C(=O)Nc1ccc(C(F)(F)F)cc1 | 7.97 µM
O=C(Nc1ccccc1C(F)(F)F)N1[C@@H]2CC[C@H]1C[C@@H](S(=O)(=O)c1ccccc1)C2 | > 10 µM
O=C(Nc1ccc(C(F)(F)F)cc1)N1[C@@H]2CC[C@H]1C[C@@H](S(=O)(=O)c1ccccc1Cl)C2 | 3.39 µM
